Results reported in patent publication US7951359B2, “Compositions and methods for therapy or prevention of chemotherapy-induced neuropathy” (Merck Serono SA, priority 2004, dated 2011).
Like-named read-outs stand apart in the source and are kept apart here.

Key:
[1] = system: vincristine induced neuropathy; assay: Walking test (motor coordination) in vincristine-treated rats; type: in vivo, rat; conditions: IL-6 0.3, 1, 3, 10 μg/kg SC daily; 2 and 3 weeks
Method: The motor coordination was assessed using walking test, which consists at measuring the time taken by a rat placed at one extremity of a 100 cm-long horizontal wooden rod of 5.5 cm diameter, 40 cm above the table, to cover a distance of 1 m on this rod. Three tests (maximum duration: 60 s each) were performed, and the mean value was calculated and retained as characteristic value. If the animal fell down, it was scored with a maximum of 60 s.

[2] = system: vincristine induced neuropathy; assay: Electromyography (EMG) in vincristine-treated rats; type: in vivo, rat
Method: In parallel to behavioral tests, electrophysiological test as described in Example 17, were carried out to evaluate fiber/nerve function in vincristine-administered rats vis-à-vis rats co-administrated with IL-6.
Electrophysiological recordings were performed using a Neuromatic 2000M electromyograph (EMG) (Dantec, Les Ulis, France). Rats were anaesthetized by IP injection of 60 mg/kg ketamine chlorhydrate (Imalgene 500®, Rhône Merieux, Lyon, France). The normal body temperature was maintained around […] with a heating lamp and verified using a contact thermometer (Quick, Bioblock Scientific, Illkirch, France) placed on the tail surface.
Compound muscle action potential (CMAP) of M wave signal (or electrically evoked muscle potential) was recorded in the gastrocnemius muscle after stimulation of the sciatic nerve. M wave reflects the current developed during the action potential of muscle fibers. A reference electrode and an active needle were placed in the hind paw. A ground needle was inserted on the lower back of the rat. Sciatic nerve was stimulated with a single 0.2 ms pulse at supramaximal intensity. The […] of the motor wave was recorded and expressed in ms.
Sensitive nerve conduction velocity (SNCV) was also recorded. The tail skin electrodes were placed as follows: a reference needle inserted at the base of the tail and an anode needle placed 30 mm away from the reference needle toward the extremity of the tail. A ground needle electrode was inserted between the anode and reference needles. The caudal nerve was stimulated with a series of 20 pulses (for 0.2 ms) at an intensity of 12.8 mA. The velocity was expressed in m/s.
H-wave reflex was recorded in the hind footpad muscle after stimulation of the sciatic nerve. A reference electrode and a ground needle were placed on the lower back of the rat. The sciatic nerve was stimulated with a single 0.2 ms pulse at supramaximal intensity. The amplitude (mV) of H wave and the proportion of animal lacking H wave response were the parameters studied.

[3] = system: vincristine induced neuropathy; assay: Morphometric analysis of sciatic nerve in vincristine-treated rats; type: in vivo, rat
Method: Histomorphometric analyses were carried out as described in Example 18 at the completion of the experiments, to explore morphologic changes occurring in fiber and axon diameter and myelin thickness in rats treated with vincristine and in rats co-administrated with IL-6.
With vincristine, morphometric analysis was performed 2 week after the end of vincristine administration on 3 animals per group. The animals were anesthetized by IP injection of 100 mg/kg Imalgène 500®. A 5 mm segment of sciatic nerve was excised, fixed overnight with 4% glutaraldehyde (Sigma, L'Isle d'Abeau-Chesnes, France) in phosphate buffered saline (PBS) (pH=7.4) and maintained in 30% sucrose and stored at 4° C. until further processing. At the time of use, the nerve sample was post-fixed in 1% osmium tetroxide (Sigma, L'Isle d'Abeau-Chesnes, France) in PBS for 2 h, dehydrated in serial alcohol solution, and embedded in Epon. Embedded tissues were then placed at 70° C. during 3 days to allow polymerization of the tissue wax. Cross sections of 1.5 μm thick were performed and they were stained with a 1% toluidine blue solution (Sigma, L'Isle d'Abeau-Chesnes, France) for 2 min, dehydrated and mounted on Eukitt. Twelve sections per sample were examined using an optical microscope (Nikon, Tokyo, Japan) and analyzed using, a semi-automated digital image analysis software (Biocom, France). The fiber diameter (a), axon diameter (b), and myelin thickness (c) were measured as illustrated below.

[4] = system: Hybridoma growth factor (HGF) activity; assay: Hybridoma growth factor (HGF) activity of IL-6; type: cell-based; conditions: based on Hybridoma growth factor (HGF) activity
Text: Recombinant human IL-6 (r-hlL-6) is produced in genetically engineered Chinese Hamster Ovary (CHO) cells. The production process begins with the growth and expansion of cells from a working cell bank (WCB) and continues under conditions where r-hlL-6 is secreted into the culture medium. The r-hlL-6 was harvested and purified from culture medium of the engineered cells.

[5] = rodents; cited from earlier work
[6] = monkeys; cited from earlier work

IL-6: Recombinant human IL-6 produced in genetically engineered Chinese Hamster Ovary (CHO) cells
walking test, time to traverse the rod versus vincristine alone [1]: traversed the rod faster
CMAP latency time ([2]; IL-6 10 μg/kg SC daily with vincristine): fully preserved their CMAP latency time
vincristine-induced CMAP latency ([2]; IL-6 0.3-10 μg/kg SC daily, p<0.05): reduced
SNCV in vincristine treated animals ([2]; IL-6 1-10 μg/kg SC daily): full restoration of SNCV
H wave amplitude preservation ([2]; IL-6 1-10 μg/kg SC daily with vincristine): fully preserved the H wave amplitude
protection against loss of M wave amplitude, duration ([2]; IL-6 3-10 μg/kg SC daily with vincristine): stable throughout the experiment
prevention of vincristine-induced loss of M wave amplitude ([2]; IL-6 all doses tested (0.3-10 μg/kg SC daily)): prevent vincristine-induced loss of M wave amplitude
protection against vincristine-induced fiber/nerve function loss compared with 4-MC ([2]; IL-6 vs 4-MC 10 μg/kg IP): confers better protection that 4-MC
decrease in axon diameter by vincristine ([3]; IL-6 0.3-10 μg/kg SC daily): significantly reduced/prevented the decrease in axon diameter
percentage of degenerated fibers in vincristine treated rats ([3]; IL-6 0.3-10 μg/kg SC daily): decreased the percentage of degenerated fibers
vincristine-induced fiber shrinkage ([3]; IL-6 1-10 μg/kg SC daily): prevented vincristine-induced fiber shrinkage
vincristine-induced myelin loss ([3]; IL-6 1-10 μg/kg SC daily): reduced/prevented vincristine-induced myelin loss
potency [4]: 23.3×10^6 IU/ml
active dose as thrombopoietic factor [5]: above 500 μg/kg
active dose as thrombopoietic factor [6]: 0.01 mg/kg
